Assay results taken from paper PMC6646369, “A new bioavailable fenretinide formulation with antiproliferative, antimetabolic, and cytotoxic effects on solid tumors” (Cell Death & Disease, 2019).
Values after ≈ are worked out from the molar mass of the structure shown.

Assays:
[1] = Aqueous solubility of fenretinide (saturation in water, spectrophotometric at 360 nm); format: physicochemical; details: water at 25 °C; read-out: Solubility in H2O
Experimental: The first step of NanoFEN preparation involved fenretinide salification to raise its aqueous solubility to the extent required for complexation with cyclodextrins. […] The complex was analyzed by ^1H-NMR to detect the presence of chemical shift changes with respect to the free drug as indicators of fenretinide inclusion into the cyclodextrin hydrophobic cavity. […] The ^1H-NMR spectra were recorded by an Inova 600 MHz High Resolution NMR Spectrometer. The amount of fenretinide incorporated into the complex was spectrophotometrically determined in solutions obtained by dissolving known amounts of the solid complex in a water:ethanol (1:1, v-v) mixture with the aim to dissociate the drug from the complex and maintain its solubilization in the aqueous phase in the presence of ethanol. The hydro-alcoholic solutions were analyzed for their fenretinide content at the maximum wavelength of the fenretinide absorption (360 nm). The aqueous solubility of fenretinide complexed with 2-hydroxypropyl-β-cyclodextrin was measured in comparison with the pure drug. […] After filtration the saturated solutions were spectrophotometrically analysed at 360 nm for their fenretinide content.

[2] = Plasma pharmacokinetics of fenretinide in mice; format: in vivo, CD1 female mice
Experimental: The experiments were performed in CD1 female mice, 7 weeks of age, (body weight 25 ± 2 g) obtained from Envigo RMS SrL (Udine, Italy). Mice were maintained under specific-pathogen-free conditions with constant temperature and humidity, according to the institutional guidelines of the Istituto Superiore di Sanità Animal Care Committee. Animal experimentation was conducted in conformance with the following laws, regulations, and policies governing the care and use of laboratory animals: Italian Governing Law (D. l. 26/2014; Authorization n.19/2008-A issued March 6, 2008 by the Ministry of Health). The pharmacokinetics of NanoFEN, administered by oral or intravenous route, was investigated in mice receiving the formulation at doses corresponding to 5 mg/kg of fenretinide. The intravenous administration was carried out by injection in the tail vein of an intravenous bolus of NanoFEN dissolved in water or PureFEN suspended in a mixture of ethanol 10 % in saline as a comparison. For the oral administration the mice were gavaged the with NanoFEN dissolved in water or with the reconstituted content of the NCI capules, i.e., fenretinide (100 mg) in corn oil (704 mg) and Polysorbate 80 (60 mg) as a comparison. After the intravenous or oral treatments, a series of blood samples were taken at 15 and 30 min and at 1, 2, 4, 8, 10, 24 and 48 h. Blood was collected in heparinized tubes from the retro-orbital plexus of the mice under isoflurane anesthesia. To obtain plasma, blood samples were centrifuged at 4000 rpm for 10 min at 4 °C. The samples were stored at −20 °C until analysis. The total concentration of fenretinide in plasma of mice was determined according to a method previously described. Briefly, aliquot of 200 μl of each plasma sample was added to 400 μl of Acetonitrile (CH3CN) containing 125 μg/mL Butylated hydroxytoluene (BHT), and the mixture was vortexed and centrifuged to pellet the precipitated proteins. The recovered supernatants were analysed on a liquid chromatograph (Perkin-Elmer, Norwall, CT) fitted with a C18 (50 mm × 2.0 mm, 5 μm) reverse-phase column and a C18 precolumn (Perkin-Elmer, Milan, Italy). The mobile phase consisted of CH3CN:H2O:CH3COOH (75:2:2, v:v:v) delivered at a flow rate of 2 mL/min. Detection was carried out with a Perkin-Elmer LC95 absorbance detector at 362 nm. N-(4-ethoxyphenyl)-retinamide (EPR) was used as internal standard. For the quantitative evaluation, reference standard curves were set up in control mouse plasma with different known amounts of NanoFEN or PureFEN. The measured fenretinide concentration-vs-time data were elaborated by non-compartmental analysis (WinNonLin software v3) to obtain the main pharmacokinetic parameters of NanoFEN.

[3] = mouse, iv, CD1 female mice, 5 mg/Kg fenretinide, plasma
[4] = mouse, plasma, iv, CD1 female mice, 5 mg/Kg fenretinide

CC1=C(/C=C/C(C)=C/C=C/C(C)=C/C(=O)Nc2ccc(O)cc2)C(C)(C)CCC1 [PureFEN, N-(4-Hydroxyphenyl) retinamide] gave a solubility at 12 h [1] of 1.71 µg/mL (≈ 4.37 µM), an HL ([2]; CD1 female mice, 5 mg/Kg fenretinide, i.v.) of 7.87 h and an AUC ([2]; female, CD1, mouse, iv, Fig. 1e, single administration of 5 mg/kg, plasma) of 6570 ng·h/mL. It also gave an AUC(0-inf) [2, 3] of 6570 ng·h/mL, an AUC(0-t) [2, 3] of 6420 ng·h/mL and a Cmax [2, 3] of 4130 ng/mL. It also gave a Vd [2, 4] of 6.52 L/kg, a clearance [2, 4] of 9.57 mL/min/kg and a k el ([2]; mouse, plasma, iv, CD1 female mice, 5 mg/Kg fenretinide, i.v., read-out: Ke (converted)) of 2.44e-05 s⁻¹.
